Laboratory results taken from patent US12290513B2, “Therapeutic methods and compositions for treating movement disorders” (Vima Therapeutics, Inc., priority 2023, dated 2025).
Read-outs that look alike come from different tables or passages of the source.

What was measured:
[1] = target: human muscarinic receptor M1 (Homo sapiens, UniProt P11229); assay: cell-based
Description: (§1) All cells used in the following experiments were clonal populations of Chinese Hamster Ovary (CHO) cells stably expressing the corresponding human muscarinic receptor, except for the M4 cell line, which was a population of CHO cells transiently transfected with the human M4 receptor. […] The procedure was as follows: • 1. Cells were thawed and cultured in cell culture medium (DMEM/F12 containing 10% FBS, 1× penicillin-streptomycin and 600 μg/ml hygromycin B) at 37° C. in 5% (v/v) CO2. • 2. One day before the assays, cells were detached using TrypLE™ and counted using a cell-counter. […] 12,000 cells/well were seeded in 30 μl/well culture medium in a 384-well cell plate and incubated overnight at 37C, 5% (v/v) CO2. • 4. On the assay day, 2× dye solution was prepared following the manual of the FLIPR® Calcium 6 Assay Kit: • i. The dye was diluted with assay buffer (20 mM HEPES in 1× HBSS, PH 7.4); • ii. Probenecid was added to a final concentration of 5 mM; • iii. […] were vortexed vigorously for 1-2 minutes. • 5. Medium was removed from the cell plate by flicking the cell plate on paper towels. • 6. 10 μl of assay buffer and 10 μl of 2× dye solution was added to each well of the cell plate. • 7. The cell plate was shaken on a plate shaker at 600 rpm for 2 minutes and incubated at 37° C. for 2 hours followed by an additional 15-minute incubation at 25° C. • 8. The test compounds were next prepared in assay buffer: • a. All compounds were diluted to the required concentration with DMSO and added to a 384-well compound plate; • b. All compounds were serially diluted; • 1. Starting with 10 mM concentration of each test compound, all samples were serially diluted in 3-fold dilutions. • 2. 90 nl/well of each compound was transferred from the source plate to a 384-well compound plate using an Echo liquid handler. • 3. 30 μl/well assay buffer was added to the compound plate; • c. The plates were mixed on a plate shaker for 2 mins; • 9. The cell plate, compound plate and pipette tips were placed in the FLIPR screening system and 10 μl of each compound was added to a well of the cell plate. • 10. Plates were read for 160 sec with 1 sec intervals to obtain the data in agonist mode, then kept at 25° C. in the dark for 30 min. • 11.

[2] = target: human muscarinic receptor M3 (Homo sapiens, UniProt P20309); assay: cell-based
Description: as §1

[3] = target: T1, human muscarinic receptor M5 (Homo sapiens, UniProt P08912); assay: Calcium flux assay (FLIPR), CHO cells expressing human M5; format: cell-based; settings: agonist mode
T1 construct: expressed in transfected cells
Description: (§2) All cells used in the following experiments were clonal populations of Chinese Hamster Ovary (CHO) cells stably expressing the corresponding human muscarinic receptor, except for the M4 cell line, which was a population of CHO cells transiently transfected with the human M4 receptor. Muscarinic agonism and antagonism of each receptor was measured by a quantitative calcium flux assay that is used for multiple classes of G-protein-coupled receptors, or GPCRs, as described elsewhere (e.g., Arkin et al., […], PMID: 22553878). Acetylcholine and atropine were used as positive controls for receptor agonism and antagonism, respectively. The procedure was as follows: • 1. Cells were thawed and cultured in cell culture medium (DMEM/F12 containing 10% FBS, 1× penicillin-streptomycin and 600 μg/ml hygromycin B) at 37° C. in 5% (v/v) CO2. • 2. One day before the assays, cells were detached using TrypLE™ and counted using a cell-counter. Only cells with >85% viability are used for the assay. • 3. […] Plates were read for 160 sec with 1 sec intervals to obtain the data in agonist mode, then kept at 25° C. in the dark for 30 min. • 11. […] Plates were read for 160 sec with 1 sec intervals, thereby measuring the ability for test compounds to antagonize the activation of muscarinic receptors by Ach.

[4] = target: T2, human muscarinic receptor M2 (Homo sapiens, UniProt P08172); assay: Calcium flux assay (FLIPR), CHO cells expressing human M2; format: cell-based; settings: agonist mode
T2 construct: expressed in transfected cells
Description: as §2

[5] = In vivo PK of (S)-BTC in rats: plasma, brain, CSF; settings: male, Sprague Dawley, rat, 10 mg/kg single oral dose; for Kp: po, 10 mg/kg
Description: 6-8-week-old male Sprague Dawley rats were fasted overnight prior to treatment. […] Treated animals were exsanguinated prior to brain collection, and brain samples were frozen at −80° C. […] Concentrations of compounds in the plasma, brain, CSF samples were analyzed using a standard LC-MS/MS method to detect parent test compound from each of the processed tissues. The following pharmacokinetic parameters were calculated and analyzed using WinNonlin (Phoenix™, version 8.3): T1/2, Cmax, Tmax, MRT, AUCinf, AUClast, F %, ratio of brain/plasma, ratio of CSF/plasma, and ratio of CSF/brain.

[6] = human, in vivo
Description: Experimental Design: All of the data collected in this example were run in a double-blind, randomized, placebo controlled setting of normal healthy adults. […] Dizziness was measured by the visual analog scale (VAS), a common clinical measure of dizziness.

T1 sequence (P08912 whole entry): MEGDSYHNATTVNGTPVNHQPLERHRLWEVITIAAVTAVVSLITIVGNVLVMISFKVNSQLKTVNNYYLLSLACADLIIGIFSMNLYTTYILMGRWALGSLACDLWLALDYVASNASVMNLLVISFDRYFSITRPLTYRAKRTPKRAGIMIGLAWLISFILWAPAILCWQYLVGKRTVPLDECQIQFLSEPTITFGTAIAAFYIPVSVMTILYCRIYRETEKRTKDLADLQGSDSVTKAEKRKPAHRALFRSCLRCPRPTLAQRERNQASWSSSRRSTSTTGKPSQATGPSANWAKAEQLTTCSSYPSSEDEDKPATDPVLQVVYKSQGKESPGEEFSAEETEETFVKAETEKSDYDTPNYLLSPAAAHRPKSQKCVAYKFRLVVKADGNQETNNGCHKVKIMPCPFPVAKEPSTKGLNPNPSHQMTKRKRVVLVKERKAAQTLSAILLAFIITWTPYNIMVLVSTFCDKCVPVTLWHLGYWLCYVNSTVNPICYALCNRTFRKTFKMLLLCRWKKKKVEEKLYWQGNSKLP
T2 sequence (P08172 whole entry): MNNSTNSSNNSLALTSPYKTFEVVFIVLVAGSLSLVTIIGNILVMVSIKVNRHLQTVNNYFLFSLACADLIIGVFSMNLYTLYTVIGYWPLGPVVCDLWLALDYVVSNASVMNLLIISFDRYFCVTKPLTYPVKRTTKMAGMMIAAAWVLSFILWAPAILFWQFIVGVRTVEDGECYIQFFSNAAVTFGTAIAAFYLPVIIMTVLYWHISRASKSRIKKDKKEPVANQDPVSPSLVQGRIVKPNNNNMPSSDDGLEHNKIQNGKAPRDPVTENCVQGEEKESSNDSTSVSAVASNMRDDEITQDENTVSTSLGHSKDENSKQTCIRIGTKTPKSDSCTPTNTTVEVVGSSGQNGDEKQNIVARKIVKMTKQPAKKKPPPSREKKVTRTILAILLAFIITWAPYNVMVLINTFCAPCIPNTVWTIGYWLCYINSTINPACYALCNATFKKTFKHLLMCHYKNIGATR
Chain of human muscarinic receptor M1 (P11229 whole entry): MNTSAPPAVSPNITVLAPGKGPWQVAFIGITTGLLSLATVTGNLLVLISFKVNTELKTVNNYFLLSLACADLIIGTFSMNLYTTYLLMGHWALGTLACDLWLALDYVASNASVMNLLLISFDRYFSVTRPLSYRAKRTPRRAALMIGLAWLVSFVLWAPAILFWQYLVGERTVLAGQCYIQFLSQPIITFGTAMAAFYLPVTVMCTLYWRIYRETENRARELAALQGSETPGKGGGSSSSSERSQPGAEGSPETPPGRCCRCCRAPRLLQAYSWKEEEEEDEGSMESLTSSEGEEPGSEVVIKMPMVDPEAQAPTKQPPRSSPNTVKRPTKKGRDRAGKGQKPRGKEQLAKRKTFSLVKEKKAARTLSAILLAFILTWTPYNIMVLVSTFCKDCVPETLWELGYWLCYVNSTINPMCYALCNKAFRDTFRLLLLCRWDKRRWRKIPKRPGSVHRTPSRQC
Chain of human muscarinic receptor M3 (P20309 whole entry): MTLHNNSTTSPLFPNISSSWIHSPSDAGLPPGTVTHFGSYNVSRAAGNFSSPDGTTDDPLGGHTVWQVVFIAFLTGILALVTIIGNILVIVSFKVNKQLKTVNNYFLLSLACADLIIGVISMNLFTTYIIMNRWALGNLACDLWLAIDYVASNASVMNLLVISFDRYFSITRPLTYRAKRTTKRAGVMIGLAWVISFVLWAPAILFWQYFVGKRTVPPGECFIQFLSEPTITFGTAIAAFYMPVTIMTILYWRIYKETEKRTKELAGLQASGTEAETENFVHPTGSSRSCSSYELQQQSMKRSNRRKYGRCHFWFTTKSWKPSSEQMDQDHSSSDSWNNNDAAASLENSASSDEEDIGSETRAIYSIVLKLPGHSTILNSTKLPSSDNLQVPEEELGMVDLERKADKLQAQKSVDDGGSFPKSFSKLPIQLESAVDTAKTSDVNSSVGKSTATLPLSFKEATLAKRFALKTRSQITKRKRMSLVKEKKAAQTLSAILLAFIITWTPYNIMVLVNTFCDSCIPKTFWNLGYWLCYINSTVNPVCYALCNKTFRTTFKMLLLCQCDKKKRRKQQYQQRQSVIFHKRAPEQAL

EC50 [1] [nM] | EC50 [2] [nM] | EC50 [3] [nM] | EC50 [4] [nM] | Kp ([5]; CSF and plasma, read-out: AUClast Ratio (CSF/Plasma)) | Kp ([5]; CSF and plasma, read-out: Cmax Ratio (CSF/Plasma)) | Kp ([5]; brain and plasma, read-out: AUClast Ratio (Brain/Plasma)) | Kp ([5]; brain and plasma, read-out: Cmax Ratio (Brain/Plasma)) | AUC(0-t) ([5]; CSF, mean) [ng·h/mL] | Cmax ([5]; CSF, mean) [ng/mL] | Tmax ([5]; CSF, mean) [h] | Cmax ([5]; brain, mean) [ng/g] | Tmax ([5]; brain, mean) [h] | AUC(0-inf) ([5]; plasma, mean) [ng·h/mL] | AUC(0-t) ([5]; plasma, mean) [ng·h/mL] | Cmax ([5]; plasma, mean) [ng/mL] | Tmax ([5]; plasma, mean) [h] | half-life ([5]; plasma, mean) [h] | MRT inf ([5]; plasma, mean, read-out: MRTInf obs) [h] | share of exposure that is R-THP [6] [%] | Structure (SMILES)
195 | 20.8 | 124 | 405 | 0.00615 | 0.00553 | 0.0499 | 0.0242 | 6.31 | 1.74 | 0.5 | 7.6 | 8 | 1080 | 1030 | 314 | 1 | 1.81 | 2.91 |  | C[C@@H](C[N+](C)(C)C)OC(N)=O.[Cl-] [(S)-BTC, (S)-bethanechol]
 |  |  |  |  |  |  |  |  |  |  |  |  |  |  |  |  |  |  | 85 | O[C@@](CCN1CCCCC1)(c1ccccc1)C1CCCCC1 [(R)-THP, (R)-trihexyphenidyl]
